Results as given in patent US20230212549A1, “COMPOUNDS COMPRISING A […] LIGAND AND USE THEREOF” (priority 2021, published 2023).
Each block holds one compound with its values, some of them ahead of it. Numbered stars: 1 amine (or outer) side, 2 acyl side, 3 side chain; on linkers, the order of the positions; unused ones are H or OH. Bridge positions count the residues as written; N and C are the ends. Square brackets hold non-standard residues; d marks the D form. Peptide text beside a SMILES is read from it. * marks the point of attachment. X13 = O=C(O)CN1CCN(CC(=O)O)CCN(CC(=O)N2CCN(Cc3cc(C[*:1])cc(C[*:2])c3)CC2)CCN(CC(=O)O)CC1; X12 = O=C(O)CN1CCN(CC(=O)O)CCN(CC(=O)NCCCOCCOCCOCCCN*)CCN(CC(=O)O)CC1; mXylylene = c1cc(C[*:1])cc(C[*:2])c1; NMeF = CN[C@@H](Cc1ccccc1)C(=O)O; Suc = O=C(CCC(=O)[*:2])[*:1]; Nle = CCCC[C@H](N)C(=O)O; Hexanoyl = CCCCCC(=O)*; Mpa = O=C(O)CCS

What was measured:
[1] = 24 h incubation, 37° C.
[2] = 24 h incubation, 37° C.; remark: listed apart in the source
[3] = Pharmacokinetic study in mice (plasma, NCA); conditions: mouse, intravenous; for Vd: mouse plasma
[4] = Pharmacokinetic study in rats (plasma, NCA); conditions: rat, intravenous; for Vd: rat plasma
[5] = Plasma stability assay, mouse plasma; type: in vitro ADME; conditions: 37° C.; for remaining at 4 h, 9.8 µM / remaining at 24 h, 9.8 µM: mouse, plasma, read-out: % intact compound remaining after incubation, Mouse plasma; for remaining at 24 h, 9.8 µM: 24 h incubation
[6] = biological target: T1, FAP-expressing human WI-38 fibroblasts (Homo sapiens, UniProt Q12884); assay: Competitive FACS binding assay
T1 construct: FAP-expressing human WI-38 fibroblasts (ECACC) were cultured in EMEM; host or cells: WI-38 human fibroblasts
Experimental: Cells were analyzed in an Attune NxT flow cytometer. […] […].
Cells were analyzed in an Attune NxT flow cytometer. […]

Human recombinant FAP [7] = biological target: T2, Human recombinant FAP (Homo sapiens, UniProt Q12884); assay: FRET-based FAP protease activity assay; type: biochemical; set-up: purchased R&D systems 3715-SE
Human recombinant FAP [8] = biological target: T2, Human recombinant FAP; assay: Surface plasmon resonance (Biacore) assay; type: binding
recombinant human PREP = biological target: T3, recombinant human PREP (Homo sapiens, UniProt P48147); assay: PREP protease activity assay; type: biochemical
T3 construct: purchased R&D systems 4308-SE
T3 sequence (P48147 1-710): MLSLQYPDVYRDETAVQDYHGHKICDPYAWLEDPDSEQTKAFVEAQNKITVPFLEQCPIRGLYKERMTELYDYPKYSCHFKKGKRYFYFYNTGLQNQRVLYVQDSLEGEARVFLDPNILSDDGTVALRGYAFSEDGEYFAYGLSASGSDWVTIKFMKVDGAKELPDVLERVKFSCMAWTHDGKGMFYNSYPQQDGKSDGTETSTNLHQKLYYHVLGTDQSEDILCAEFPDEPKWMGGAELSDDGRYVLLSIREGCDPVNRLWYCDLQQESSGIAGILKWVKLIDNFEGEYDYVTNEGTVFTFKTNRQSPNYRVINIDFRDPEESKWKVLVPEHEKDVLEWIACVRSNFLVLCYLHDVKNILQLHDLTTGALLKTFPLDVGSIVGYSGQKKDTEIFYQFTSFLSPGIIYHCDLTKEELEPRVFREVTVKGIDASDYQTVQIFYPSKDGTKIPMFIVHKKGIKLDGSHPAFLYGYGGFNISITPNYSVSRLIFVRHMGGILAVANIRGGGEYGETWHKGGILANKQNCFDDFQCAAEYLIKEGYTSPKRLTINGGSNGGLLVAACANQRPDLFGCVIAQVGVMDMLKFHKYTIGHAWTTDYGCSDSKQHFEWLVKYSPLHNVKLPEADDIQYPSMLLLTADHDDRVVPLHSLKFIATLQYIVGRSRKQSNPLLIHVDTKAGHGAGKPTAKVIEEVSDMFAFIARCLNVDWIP

Recombinant human DPP4 = biological target: T4, Recombinant human DPP4 (Homo sapiens, UniProt P27487); assay: DPP4 protease activity assay; type: biochemical
T4 construct: purchased R&D systems 9168-SE

[9] = pIC50 Category (Activity), FRET-based FAP protease activity assay, recombinant human FAP, 37° C.

T2 sequence (Q12884 whole entry): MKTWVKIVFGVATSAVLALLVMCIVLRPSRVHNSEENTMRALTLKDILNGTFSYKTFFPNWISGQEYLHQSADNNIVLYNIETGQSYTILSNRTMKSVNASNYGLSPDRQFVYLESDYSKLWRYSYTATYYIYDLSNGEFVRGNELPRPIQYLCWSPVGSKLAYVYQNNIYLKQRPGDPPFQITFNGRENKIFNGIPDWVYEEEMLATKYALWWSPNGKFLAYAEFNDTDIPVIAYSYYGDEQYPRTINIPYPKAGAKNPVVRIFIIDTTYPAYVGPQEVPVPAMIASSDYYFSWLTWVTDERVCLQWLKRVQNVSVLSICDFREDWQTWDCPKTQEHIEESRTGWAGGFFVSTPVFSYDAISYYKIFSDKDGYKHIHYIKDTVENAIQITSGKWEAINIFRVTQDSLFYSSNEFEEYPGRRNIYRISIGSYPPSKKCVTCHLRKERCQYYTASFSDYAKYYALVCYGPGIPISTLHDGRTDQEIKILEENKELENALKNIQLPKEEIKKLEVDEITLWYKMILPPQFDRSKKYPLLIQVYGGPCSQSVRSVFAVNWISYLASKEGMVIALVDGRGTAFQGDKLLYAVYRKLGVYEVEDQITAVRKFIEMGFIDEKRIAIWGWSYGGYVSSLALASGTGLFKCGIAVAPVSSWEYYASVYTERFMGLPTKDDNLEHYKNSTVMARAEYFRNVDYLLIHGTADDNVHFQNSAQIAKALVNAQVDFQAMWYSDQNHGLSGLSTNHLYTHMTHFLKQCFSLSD
T1 sequence (Q12884 whole entry): as above
T4 sequence (P27487 whole entry): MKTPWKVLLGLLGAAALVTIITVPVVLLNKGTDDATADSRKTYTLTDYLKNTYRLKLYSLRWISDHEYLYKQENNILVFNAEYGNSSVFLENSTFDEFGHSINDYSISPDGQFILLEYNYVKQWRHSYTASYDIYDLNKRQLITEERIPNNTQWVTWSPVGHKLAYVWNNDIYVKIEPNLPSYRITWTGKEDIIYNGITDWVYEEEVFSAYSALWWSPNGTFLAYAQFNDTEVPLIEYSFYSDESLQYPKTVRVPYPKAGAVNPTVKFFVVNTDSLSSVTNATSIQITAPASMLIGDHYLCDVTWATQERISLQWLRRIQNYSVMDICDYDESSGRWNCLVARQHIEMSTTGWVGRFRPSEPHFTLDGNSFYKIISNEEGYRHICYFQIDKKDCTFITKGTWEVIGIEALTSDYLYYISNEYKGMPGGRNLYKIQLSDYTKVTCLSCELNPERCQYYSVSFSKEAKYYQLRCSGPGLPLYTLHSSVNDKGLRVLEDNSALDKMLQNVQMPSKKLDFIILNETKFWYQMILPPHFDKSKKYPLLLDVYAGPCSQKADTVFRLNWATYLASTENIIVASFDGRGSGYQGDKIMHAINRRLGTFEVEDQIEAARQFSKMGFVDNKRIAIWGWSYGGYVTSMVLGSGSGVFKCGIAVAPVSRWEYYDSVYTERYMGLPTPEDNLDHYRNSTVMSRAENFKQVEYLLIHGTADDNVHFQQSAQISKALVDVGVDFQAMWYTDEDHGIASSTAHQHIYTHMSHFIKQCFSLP

SMILES: CCCCCC(=O)N[C@H]1CSCc2cc(CSCCNC(=O)CN3CCN(CC(=O)O)CCN(CC(=O)O)CCN(CC(=O)O)CC3)cc(c2)CSC[C@@H](C(=O)O)NC(=O)[C@H](Cc2ccccc2)NC(=O)[C@H](CCC(N)=O)NC(=O)[C@H]([C@@H](C)O)NC(=O)[C@@H]2CCCN2C(=O)[C@@H]2CCCN2C1=O [3BP-3623, Hex-[Cys(tMeBn(InDOTA-AET))-Pro-Pro-Thr-Gln-Phe-Cys]-OH]
% intact compound remaining after incubation, Human plasma [1]: 100% (24 h)
% intact compound remaining after incubation, Rat plasma [2]: 100% (24 h)
AUC(0-inf) ([3]; 4 nmol/kg): 0.0077 µM·h
C0 ([3]; 4 nmol/kg): 17.6 nM
clearance ([3]; 4 nmol/kg): 8.63 mL/min/kg
half-life ([3]; 4 nmol/kg): 35 min
Vd ([3]; 4 nmol/kg, Vss, 4 nmol/kg): 0.36 L/kg
Vd ([3]; 4 nmol/kg, Vz): 0.44 L/kg
AUC(0-inf) ([3]; 40 nmol/kg): 0.055 µM·h
C0 ([3]; 40 nmol/kg): 228 nM
clearance ([3]; 40 nmol/kg): 12 mL/min/kg
half-life ([3]; 40 nmol/kg): 30 min
Vd ([3]; 40 nmol/kg, Vss, 40 nmol/kg): 0.31 L/kg
Vd ([3]; 40 nmol/kg, Vz): 0.53 L/kg
AUC(0-inf) ([3]; 400 nmol/kg): 0.532 µM·h
C0 ([3]; 400 nmol/kg): 2130 nM
clearance ([3]; 400 nmol/kg): 12.5 mL/min/kg
half-life ([3]; 400 nmol/kg): 35 min
Vd ([3]; 400 nmol/kg, Vss, 400 nmol/kg): 0.2 L/kg
Vd ([3]; 400 nmol/kg, Vz): 0.64 L/kg
AUC(0-inf) ([4]; 40 nmol/kg): 0.074 µM·h
C0 ([4]; 40 nmol/kg): 127 nM
clearance ([4]; 40 nmol/kg): 9.02 mL/min/kg
half-life ([4]; 40 nmol/kg): 45 min
Vd ([4]; 40 nmol/kg, Vss, 40 nmol/kg): 0.48 L/kg
Vd ([4]; 40 nmol/kg, Vz): 0.58 L/kg
AUC(0-inf) ([4]; 400 nmol/kg): 0.738 µM·h
C0 ([4]; 400 nmol/kg): 1410 nM
clearance ([4]; 400 nmol/kg): 9.03 mL/min/kg
half-life ([4]; 400 nmol/kg): 71 min
Vd ([4]; 400 nmol/kg, Vz): 0.93 L/kg

remaining at 4 h, 9.8 µM ([5]; 4 h incubation): 97%
IC50 [6]: < 10 nM
IC50 (Human recombinant FAP [7]; [9]): < 10 nM
SMILES: CSCC[C@H](NC(C)=O)C(=O)N[C@H]1CSCc2cccc(c2)CSC[C@@H](C(=O)N[C@@H](CC(=O)O)C(=O)N[C@@H](Cc2c[nH]cn2)C(=O)N(C)[C@@H](Cc2ccccc2)C(=O)N[C@@H](CCCNC(=N)N)C(=O)N[C@@H](CC(=O)O)C(N)=O)NC(=O)[C@H](Cc2ccccc2)NC(=O)[C@H](CCC(=O)O)NC(=O)[C@H]([C@@H](C)O)NC(=O)[C@@H]2CCCN2C(=O)[C@@H]2CCCN2C1=O [3BP-3188, Ac-Met-[Cys(3MeBn)-Pro-Pro-Thr-Glu-Phe-Cys]-Asp-His-Nmf-Arg-Asp-NH2] (Ac-MCPPTEFCDH[NMeF]RD-NH2; linker 2-8 via mXylylene)

SMILES: CCCCCC(=O)N[C@H]1CSCc2cc(cc(CN3CCN(C(=O)CN4CCN(CC(=O)O)CCN(CC(=O)O)CCN(CC(=O)O)CC4)CC3)c2)CSC[C@@H](C(=O)O)NC(=O)[C@H](Cc2ccccc2)NC(=O)[C@H](CCC(N)=O)NC(=O)[C@H]([C@@H](C)O)NC(=O)[C@@H]2CCCN2C(=O)[C@@H]2CCCN2C1=O [3BP-3555, Hex-[Cys(tMeBn(DOTA-PP))-Pro-Pro-Thr-Gln-Phe-Cys]-OH]
remaining at 24 h, 9.8 µM [5]: 88%
IC50 [6]: 10 to 79.4 nM
Kd (Human recombinant FAP [8]): < 10 nM
IC50 (Human recombinant FAP [7]; [9]): < 10 nM

% intact compound remaining after incubation, Human plasma [1]: 100% (24 h)
SMILES: CCCCCC(=O)N[C@H]1CSCc2cccc(c2)CSC[C@@H](C(=O)N[C@@H](CCCCNC(=O)CN2CCN(CC(=O)O)CCN(CC(=O)O)CCN(CC(=O)O)CC2)CC(=O)O)NC(=O)[C@H](Cc2ccccc2)NC(=O)[C@H](CCC(N)=O)NC(=O)[C@H]([C@@H](C)O)NC(=O)[C@@H]2CCCN2C(=O)[C@@H]2CCCN2C1=O [3BP-3397, Hex-[Cys(3MeBn)-Pro-Pro-Thr-Gln-Phe-Cys]-Bhk(DOTA)-OH]

SMILES: CCCCCC(=O)N[C@H]1CSCc2cc(CSCCNC(=O)CN3CCN(CC(=O)O)CCN(CC(=O)O)CCN(CC(=O)O)CC3)cc(c2)CSC[C@@H](C(=O)O)NC(=O)[C@H](Cc2ccccc2)NC(=O)[C@H](CCC(N)=O)NC(=O)[C@H]([C@@H](C)O)NC(=O)[C@@H]2CCCN2C(=O)[C@@H]2CCCN2C1=O [3BP-3624, Hex-[Cys(tMeBn(LuDOTA-AET))-Pro-Pro-Thr-Gln-Phe-Cys]-OH]
% intact compound remaining after incubation, Human plasma [1]: 100% (24 h)
% intact compound remaining after incubation, Rat plasma [2]: 100% (24 h)

% intact compound remaining after incubation, Mouse plasma ([5]; 4 h incubation): 75%
IC50 [6]: 10 to 79.4 nM
Kd (Human recombinant FAP [8]): < 10 nM
IC50 (recombinant human PREP): > 1000 nM
IC50 (Recombinant human DPP4): > 1000 nM
IC50 (Human recombinant FAP [7]; [9]): < 10 nM
SMILES: CCCC[C@H](NC(=O)CCC(=O)NCCCOCCOCCOCCCNC(=O)CN1CCN(CC(=O)O)CCN(CC(=O)O)CCN(CC(=O)O)CC1)C(=O)N[C@H]1CSCc2cccc(c2)CSC[C@@H](C(=O)N[C@@H](CC(=O)O)C(N)=O)NC(=O)[C@H](Cc2ccccc2)NC(=O)[C@H](CCC(=O)O)NC(=O)[C@H]([C@@H](C)O)NC(=O)[C@@H]2CCCN2C(=O)[C@@H]2CCCN2C1=O [3BP-3320, DOTA-Ttds-Nle-[Cys(3MeBn)-Pro-Pro-Thr-Glu-Phe-Cys]-Asp-NH2] ({X12-Suc}-[Nle]CPPTEFCD-NH2; linker 2-8 via mXylylene)

remaining at 4 h, 9.8 µM ([5]; 4 h incubation): 100%
IC50 [6]: < 10 nM
Kd (Human recombinant FAP [8]): < 10 nM
IC50 (recombinant human PREP): > 1000 nM
IC50 (Recombinant human DPP4): > 1000 nM
IC50 (Human recombinant FAP [7]; pIC50 (highest activity categories), text on Table 9 categories (FACS binding and FAP activity assay)): < 10 nM
IC50 (Human recombinant FAP [7]; [9]): < 10 nM
SMILES: CCCC[C@H](NC(=O)CCC(=O)NCCCOCCOCCOCCCNC(=O)CN1CCN(CC(=O)O)CCN(CC(=O)O)CCN(CC(=O)O)CC1)C(=O)N[C@H]1CSCc2cccc(c2)CSC[C@@H](C(=O)N[C@@H](CC(=O)O)C(=O)N[C@@H](Cc2c[nH]cn2)C(=O)N[C@@H](Cc2ccccc2)C(=O)N[C@@H](CCCNC(=N)N)C(=O)N[C@@H](CC(=O)O)C(N)=O)NC(=O)[C@H](Cc2ccccc2)NC(=O)[C@H](CCC(=O)O)NC(=O)[C@H]([C@@H](C)O)NC(=O)[C@@H]2CCCN2C(=O)[C@@H]2CCCN2C1=O [3BP-3168, DOTA-Ttds-Nle-[Cys(3MeBn)-Pro-Pro-Thr-Glu-Phe-Cys]-Asp-His-Phe-Arg-Asp-NH2] ({X12-Suc}-[Nle]CPPTEFCDHFRD-NH2; linker 2-8 via mXylylene)

% intact compound remaining after incubation, Human plasma [1]: 99% (24 h)
SMILES: CCCC[C@H](NC(=O)CCC(=O)NCCCOCCOCCOCCCNC(=O)CN1CCN(CC(=O)O)CCN(CC(=O)O)CCN(CC(=O)O)CC1)C(=O)N[C@H]1CSCc2cccc(c2)CSC[C@@H](C(=O)NCCC(=O)O)NC(=O)[C@H](Cc2ccccc2)NC(=O)[C@H](CCC(N)=O)NC(=O)[C@H]([C@@H](C)O)NC(=O)[C@@H]2CCCN2C(=O)[C@@H]2CCCN2C1=O [3BP-3398, DOTA-Ttds-Nle-[Cys(3MeBn)-Pro-Pro-Thr-Gln-Phe-Cys]-Bal-OH]

SMILES: CCCCCC(=O)N[C@H]1CSCc2cc(cc(CN3CCN(C(=O)CN4CCN(CC(=O)O)CCN(CC(=O)O)CCN(CC(=O)O)CC4)CC3)c2)CSC[C@@H](C(=O)N[C@@H](CC(=O)O)C(N)=O)NC(=O)[C@H](Cc2ccccc2)NC(=O)[C@H](CCC(N)=O)NC(=O)[C@H]([C@@H](C)O)NC(=O)[C@@H]2CCCN2C(=O)[C@@H]2CCCN2C1=O [3BP-3590, Hex-[Cys(tMeBn(InDOTA-PP))-Pro-Pro-Thr-Gln-Phe-Cys]-Asp-NH2] (Hexanoyl-CPPTQFCD-NH2; linker 1-7 via X13)
remaining at 24 h, 9.8 µM [5]: 100%
% intact compound remaining after incubation, Human plasma [1]: 94% (24 h)
% intact compound remaining after incubation, Rat plasma [2]: 100% (24 h)

IC50 [6]: 100 to 794 nM
IC50 (recombinant human PREP): > 1000 nM
IC50 (Recombinant human DPP4): > 1000 nM
IC50 (Human recombinant FAP [7]; [9]): 100 to 794 nM
SMILES: C[C@@H](O)[C@@H]1NC(=O)[C@@H]2CCCN2C(=O)[C@@H]2CCCN2C(=O)CCSCc2cccc(c2)CSC[C@@H](C(=O)N[C@@H](CC(=O)O)C(N)=O)NC(=O)[C@H](Cc2ccccc2)NC(=O)[C@H](CCC(N)=O)NC1=O [3BP-3419, [3MeBn-Spa-Pro-Pro-Thr-Gln-Phe-Cys]-Asp-NH2] ([Mpa]PPTQFCD-NH2; linker 1-7 via mXylylene)
